{"source": "patent US10344060B2", "about": "(priority 2013, dated 2019)"}
{"target": "hNav1.7 (Homo sapiens, UniProt Q15858)", "sequence (Q15858 whole entry)": "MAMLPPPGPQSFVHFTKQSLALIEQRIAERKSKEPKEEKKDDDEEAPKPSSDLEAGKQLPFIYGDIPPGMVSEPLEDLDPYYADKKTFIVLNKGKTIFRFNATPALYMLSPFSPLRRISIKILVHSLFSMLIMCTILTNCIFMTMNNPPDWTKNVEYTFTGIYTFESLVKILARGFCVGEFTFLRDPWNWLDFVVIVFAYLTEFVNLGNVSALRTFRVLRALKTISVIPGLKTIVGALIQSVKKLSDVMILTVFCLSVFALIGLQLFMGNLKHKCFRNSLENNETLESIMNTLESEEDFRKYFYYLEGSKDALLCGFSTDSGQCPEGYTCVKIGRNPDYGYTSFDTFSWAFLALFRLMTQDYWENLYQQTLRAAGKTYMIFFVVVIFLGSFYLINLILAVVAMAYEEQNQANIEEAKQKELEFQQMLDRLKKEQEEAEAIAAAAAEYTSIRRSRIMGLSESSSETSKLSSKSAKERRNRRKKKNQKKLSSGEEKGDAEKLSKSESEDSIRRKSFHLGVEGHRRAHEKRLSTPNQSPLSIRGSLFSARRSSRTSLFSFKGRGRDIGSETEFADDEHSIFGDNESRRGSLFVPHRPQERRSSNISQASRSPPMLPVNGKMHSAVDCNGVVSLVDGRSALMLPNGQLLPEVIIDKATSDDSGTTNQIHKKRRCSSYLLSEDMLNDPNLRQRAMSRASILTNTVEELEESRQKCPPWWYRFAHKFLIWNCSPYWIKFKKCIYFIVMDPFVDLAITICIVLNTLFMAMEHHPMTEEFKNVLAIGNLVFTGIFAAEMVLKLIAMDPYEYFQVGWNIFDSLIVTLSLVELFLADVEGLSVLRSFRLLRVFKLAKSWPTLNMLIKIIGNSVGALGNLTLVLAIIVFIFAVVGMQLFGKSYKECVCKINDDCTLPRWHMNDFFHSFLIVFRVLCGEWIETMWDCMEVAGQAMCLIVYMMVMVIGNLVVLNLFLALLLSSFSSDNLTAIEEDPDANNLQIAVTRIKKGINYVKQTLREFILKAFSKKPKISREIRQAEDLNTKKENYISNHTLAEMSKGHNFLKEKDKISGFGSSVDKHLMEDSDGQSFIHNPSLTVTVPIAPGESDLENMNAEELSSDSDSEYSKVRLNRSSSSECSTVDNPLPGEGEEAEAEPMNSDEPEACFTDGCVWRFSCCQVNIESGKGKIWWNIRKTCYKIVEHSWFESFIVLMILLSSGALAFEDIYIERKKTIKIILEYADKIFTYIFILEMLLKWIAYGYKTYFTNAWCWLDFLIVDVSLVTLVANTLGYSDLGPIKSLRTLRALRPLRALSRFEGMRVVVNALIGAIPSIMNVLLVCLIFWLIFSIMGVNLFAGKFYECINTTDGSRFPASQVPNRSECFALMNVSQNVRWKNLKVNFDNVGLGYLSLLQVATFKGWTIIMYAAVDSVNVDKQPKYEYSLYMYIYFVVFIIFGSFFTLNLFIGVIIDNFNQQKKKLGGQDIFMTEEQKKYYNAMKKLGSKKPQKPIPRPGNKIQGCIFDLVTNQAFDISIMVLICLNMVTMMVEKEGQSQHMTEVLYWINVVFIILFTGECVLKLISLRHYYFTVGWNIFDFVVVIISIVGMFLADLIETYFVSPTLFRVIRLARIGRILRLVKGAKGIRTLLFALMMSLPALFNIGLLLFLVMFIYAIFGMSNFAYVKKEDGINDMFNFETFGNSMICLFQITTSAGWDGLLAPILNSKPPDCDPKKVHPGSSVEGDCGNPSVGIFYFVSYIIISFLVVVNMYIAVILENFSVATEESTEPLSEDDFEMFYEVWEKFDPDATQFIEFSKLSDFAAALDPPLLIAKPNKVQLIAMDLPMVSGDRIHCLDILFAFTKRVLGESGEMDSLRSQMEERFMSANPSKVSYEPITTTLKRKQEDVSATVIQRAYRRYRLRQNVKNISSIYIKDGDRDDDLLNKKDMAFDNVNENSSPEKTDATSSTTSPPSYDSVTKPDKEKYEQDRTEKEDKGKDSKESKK", "assay": "cell-based", "assay_type": "cell-based", "settings": "ratio of PX tonic IC50 values; Table 11"}
{"smiles": "CCCC[C@@H]1NC(=O)[C@H](Cc2c[nH]c3ccccc23)NC(=O)[C@H](CCCCN)NC(=O)[C@H](CCC(N)=O)NC(=O)[C@@H](NC(=O)[C@H](Cc2ccc(O)cc2)NC(=O)[C@@H](N)CC#N)CSSC[C@@H]2NC(=O)[C@@H]3CSSC[C@@H](C(=O)N[C@@H](CCCNC(=N)N)C(=O)N[C@@H](CCCCN)C(=O)N[C@@H](CCC(=O)O)C(=O)N[C@H](C(N)=O)[C@@H](C)CC)NC(=O)[C@H](Cc4c[nH]c5ccccc45)NC(=O)[C@H](CC(C)C)NC(=O)[C@H](CCCCN)NC(=O)[C@H](CSSC[C@H](NC(=O)[C@H]([C@@H](C)O)NC(=O)[C@H](Cc4c[nH]c5ccccc45)NC1=O)C(=O)N[C@@H](CC(=O)O)C(=O)N[C@@H](CO)C(=O)N[C@@H](CCCCN)C(=O)N[C@@H](CCCNC(=N)N)C(=O)N[C@@H](CCCCNC(=O)CCOCCOCCOCCOCCOCCOCCOCCOCCOCCOCCOCCOCCN)C(=O)N3)NC(=O)[C@H](CCCNC(=N)N)NC(=O)[C@H](CC(C)C)NC(=O)CNC(=O)[C@H](CCC(=O)O)NC2=O", "note": "[compound 455]", "Nav1.4/Nav1.7": 86, "Nav1.5/Nav1.7": 1101}
{"smiles": "CCCC[C@@H]1NC(=O)[C@H](Cc2c[nH]c3ccccc23)NC(=O)[C@H](CCCCN)NC(=O)[C@H](CCC(N)=O)NC(=O)[C@@H](NC(=O)[C@H](Cc2ccc(O)cc2)NC(=O)[C@@H](N)CC#N)CSSC[C@@H]2NC(=O)[C@@H]3CSSC[C@@H](C(=O)N[C@@H](CCCNC(=N)N)C(=O)N[C@@H](CCCCN)C(=O)N[C@@H](CCC(=O)O)C(=O)N[C@H](C(N)=O)[C@@H](C)CC)NC(=O)[C@H](Cc4c[nH]c5ccccc45)NC(=O)[C@H](CC(C)C)NC(=O)[C@H](CCCCN)NC(=O)[C@H](CSSC[C@H](NC(=O)[C@H]([C@@H](C)O)NC(=O)[C@H](Cc4c[nH]c5ccccc45)NC1=O)C(=O)N[C@@H](CC(=O)O)C(=O)N[C@@H](CO)C(=O)N[C@@H](CCCCN)C(=O)N[C@@H](CCCNC(=N)N)C(=O)N[C@@H](C)C(=O)N3)NC(=O)[C@H](CCCNC(=N)N)NC(=O)[C@H](CC(C)C)NC(=O)CNC(=O)[C@H](CCCCNC(=O)CCOCCOCCOCCOCCOCCOCCOCCOCCOCCOCCOCCOCCN)NC2=O", "note": "[compound 456]", "Nav1.4/Nav1.7": 68, "Nav1.5/Nav1.7": 967}
{"smiles": "CCCC[C@@H]1NC(=O)[C@H](Cc2c[nH]c3ccccc23)NC(=O)[C@H](CCCCN)NC(=O)[C@H](CCC(N)=O)NC(=O)[C@@H](NC(=O)[C@H](Cc2ccc(O)cc2)NC(=O)[C@@H](N)CCCCNC(=O)CCOCCOCCOCCOCCOCCOCCOCCOCCOCCOCCOCCOCCN)CSSC[C@@H]2NC(=O)[C@@H]3CSSC[C@@H](C(=O)N[C@@H](CCCNC(=N)N)C(=O)N[C@@H](CCCCN)C(=O)N[C@@H](CCC(=O)O)C(=O)N[C@@H](Cc4c[nH]c5ccccc45)C(N)=O)NC(=O)[C@H](Cc4c[nH]c5ccccc45)NC(=O)[C@H](CC(C)C)NC(=O)[C@H](CCCCN)NC(=O)[C@H](CSSC[C@H](NC(=O)[C@H]([C@@H](C)O)NC(=O)[C@H](Cc4c[nH]c5ccccc45)NC1=O)C(=O)N[C@@H](CC(=O)O)C(=O)N[C@@H](CO)C(=O)N[C@@H](CCCCN)C(=O)N[C@@H](CCCNC(=N)N)C(=O)N[C@@H](C)C(=O)N3)NC(=O)[C@H](CCCNC(=N)N)NC(=O)[C@H](CC(C)C)NC(=O)CNC(=O)[C@H](CCC(=O)O)NC2=O", "note": "[compound 458]", "Nav1.4/Nav1.7": 38, "Nav1.5/Nav1.7": 202}
{"smiles": "CCCC[C@@H]1NC(=O)[C@H](Cc2c[nH]c3ccccc23)NC(=O)[C@H](CCCCN)NC(=O)[C@H](CCC(N)=O)NC(=O)[C@@H](NC(=O)[C@H](Cc2ccc(O)cc2)NC(=O)[C@@H](N)CC#N)CSSC[C@@H]2NC(=O)[C@@H]3CSSC[C@@H](C(=O)N[C@@H](CCCNC(=N)N)C(=O)N[C@@H](CCCCN)C(=O)N[C@@H](CCC(=O)O)C(=O)N[C@@H](Cc4c[nH]c5ccccc45)C(N)=O)NC(=O)[C@H](Cc4c[nH]c5ccccc45)NC(=O)[C@H](CC(C)C)NC(=O)[C@H](CCCCN)NC(=O)[C@H](CSSC[C@H](NC(=O)[C@H]([C@@H](C)O)NC(=O)[C@H](Cc4c[nH]c5ccccc45)NC1=O)C(=O)N[C@@H](CC(=O)O)C(=O)N[C@@H](CO)C(=O)N[C@@H](CCCCN)C(=O)N[C@@H](CCCNC(=N)N)C(=O)N[C@@H](C)C(=O)N3)NC(=O)[C@H](CCCNC(=N)N)NC(=O)[C@H](CC(C)C)NC(=O)CNC(=O)[C@H](CCCCNC(=O)CCOCCOCCOCCOCCOCCOCCOCCOCCOCCOCCOCCOCCN)NC2=O", "note": "[compound 459]", "Nav1.4/Nav1.7": 27}
{"smiles": "CCCC[C@@H]1NC(=O)[C@H](Cc2c[nH]c3ccccc23)NC(=O)[C@H](CCCCN)NC(=O)[C@H](CCC(N)=O)NC(=O)[C@@H](NC(=O)[C@H](Cc2ccc(O)cc2)NC(=O)[C@@H](N)CC(C)C)CSSC[C@@H]2NC(=O)[C@@H]3CSSC[C@@H](C(=O)N[C@@H](CCCNC(=N)N)C(=O)N[C@@H](CCCCN)C(=O)N[C@@H](CCC(=O)O)C(=O)N[C@H](C(N)=O)[C@@H](C)CC)NC(=O)[C@H](Cc4c[nH]c5ccccc45)NC(=O)[C@H](CC(C)C)NC(=O)[C@H](CCCCN)NC(=O)[C@H](CSSC[C@H](NC(=O)[C@H]([C@@H](C)O)NC(=O)[C@H](Cc4c[nH]c5ccccc45)NC1=O)C(=O)N[C@@H](CC(=O)O)C(=O)N[C@@H](CO)C(=O)N[C@@H](CCCCN)C(=O)N[C@@H](CCCNC(=N)N)C(=O)N[C@@H](C)C(=O)N3)NC(=O)[C@H](CCCNC(=N)N)NC(=O)[C@H](CC(C)C)NC(=O)CNC(=O)[C@H](CCCCNC(=O)CCOCCOCCOCCOCCOCCOCCOCCOCCOCCOCCOCCOCCN)NC2=O", "note": "[compound 462]", "Nav1.4/Nav1.7": 20}
{"smiles": "CCCC[C@@H]1NC(=O)[C@H](Cc2c[nH]c3ccccc23)NC(=O)[C@H](CCCCN)NC(=O)[C@H](CCC(N)=O)NC(=O)[C@@H](NC(=O)[C@H](Cc2ccc(O)cc2)NC(=O)[C@H](N)CC(C)C)CSSC[C@@H]2NC(=O)[C@@H]3CSSC[C@@H](C(=O)N[C@@H](CCCNC(=N)N)C(=O)N[C@@H](CCCCN)C(=O)N[C@@H](CCC(=O)O)C(=O)N[C@H](C(N)=O)[C@@H](C)CC)NC(=O)[C@H](Cc4c[nH]c5ccccc45)NC(=O)[C@H](CC(C)C)NC(=O)[C@H](CCCCN)NC(=O)[C@H](CSSC[C@H](NC(=O)[C@H]([C@@H](C)O)NC(=O)[C@H](Cc4c[nH]c5ccccc45)NC1=O)C(=O)N[C@@H](CC(=O)O)C(=O)N[C@@H](CO)C(=O)N[C@@H](CCCCN)C(=O)N[C@@H](CCCNC(=N)N)C(=O)N[C@@H](C)C(=O)N3)NC(=O)[C@H](CCCNC(=N)N)NC(=O)[C@H](CC(C)C)NC(=O)CNC(=O)[C@H](CCCCNC(=O)CCOCCOCCOCCOCCOCCOCCOCCOCCOCCOCCOCCOCCN)NC2=O", "note": "[compound 464]", "Nav1.4/Nav1.7": 18}
{"smiles": "CCCC[C@@H]1NC(=O)[C@H](Cc2c[nH]c3ccccc23)NC(=O)[C@H](CCCCN)NC(=O)[C@H](CCC(N)=O)NC(=O)[C@@H](NC(=O)[C@H](Cc2ccc(O)cc2)NC(=O)[C@H](CC(C)C)NC)CSSC[C@@H]2NC(=O)[C@@H]3CSSC[C@@H](C(=O)N[C@@H](CCCNC(=N)N)C(=O)N[C@@H](CCCCN)C(=O)N[C@@H](CCC(=O)O)C(=O)N[C@H](C(N)=O)[C@@H](C)CC)NC(=O)[C@H](Cc4c[nH]c5ccccc45)NC(=O)[C@H](CC(C)C)NC(=O)[C@H](CCCCN)NC(=O)[C@H](CSSC[C@H](NC(=O)[C@H]([C@@H](C)O)NC(=O)[C@H](Cc4c[nH]c5ccccc45)NC1=O)C(=O)N[C@@H](CC(=O)O)C(=O)N[C@@H](CO)C(=O)N[C@@H](CCCCN)C(=O)N[C@@H](CCCNC(=N)N)C(=O)N[C@@H](C)C(=O)N3)NC(=O)[C@H](CCCNC(=N)N)NC(=O)[C@H](CC(C)C)NC(=O)CNC(=O)[C@H](CCCCNC(=O)CCOCCOCCOCCOCCOCCOCCOCCOCCOCCOCCOCCOCCN)NC2=O", "note": "[compound 466]", "Nav1.4/Nav1.7": 19}
{"smiles": "CCCC[C@@H]1NC(=O)[C@H](Cc2c[nH]c3ccccc23)NC(=O)[C@H](CCCCN)NC(=O)[C@H](CCC(N)=O)NC(=O)[C@@H](NC(=O)[C@H](Cc2ccc(O)cc2)NC(=O)[C@H](CCC)NC(=O)[C@@H](N)CC(C)C)CSSC[C@@H]2NC(=O)[C@@H]3CSSC[C@@H](C(=O)N[C@@H](CCCNC(=N)N)C(=O)N[C@@H](CCCCN)C(=O)N[C@@H](CCC(=O)O)C(=O)N[C@H](C(N)=O)[C@@H](C)CC)NC(=O)[C@H](Cc4c[nH]c5ccccc45)NC(=O)[C@H](CC(C)C)NC(=O)[C@H](CCCCN)NC(=O)[C@H](CSSC[C@H](NC(=O)[C@H]([C@@H](C)O)NC(=O)[C@H](Cc4c[nH]c5ccccc45)NC1=O)C(=O)N[C@@H](CC(=O)O)C(=O)N[C@@H](CO)C(=O)N[C@@H](CCCCN)C(=O)N[C@@H](CCCNC(=N)N)C(=O)N[C@@H](CCCCNC(=O)CCOCCOCCOCCOCCOCCOCCOCCOCCOCCOCCOCCOCCN)C(=O)N3)NC(=O)[C@H](CCCNC(=N)N)NC(=O)[C@H](CC(C)C)NC(=O)CNC(=O)[C@H](CCC(=O)O)NC2=O", "note": "[compound 470]", "Nav1.4/Nav1.7": 34, "Nav1.5/Nav1.7": 372}
{"smiles": "CCCC[C@@H]1NC(=O)[C@H](Cc2c[nH]c3ccccc23)NC(=O)[C@H](CCCCN)NC(=O)[C@H](CCC(N)=O)NC(=O)[C@@H](NC(=O)[C@H](Cc2ccc(O)cc2)NC(=O)[C@H](CCC)NC(=O)[C@@H](N)CC(C)C)CSSC[C@@H]2NC(=O)[C@@H]3CSSC[C@@H](C(=O)N[C@@H](CCCNC(=N)N)C(=O)N[C@@H](CCCCN)C(=O)N[C@@H](CCC(=O)O)C(=O)N[C@H](C(N)=O)[C@@H](C)CC)NC(=O)[C@H](Cc4c[nH]c5ccccc45)NC(=O)[C@H](CC(C)C)NC(=O)[C@H](CCCCN)NC(=O)[C@H](CSSC[C@H](NC(=O)[C@H]([C@@H](C)O)NC(=O)[C@H](Cc4c[nH]c5ccccc45)NC1=O)C(=O)N[C@@H](CC(=O)O)C(=O)N[C@@H](CO)C(=O)N[C@@H](CCCCN)C(=O)N[C@@H](CCCNC(=N)N)C(=O)N[C@@H](C)C(=O)N3)NC(=O)[C@H](CCCNC(=N)N)NC(=O)[C@H](CC(C)C)NC(=O)CNC(=O)[C@H](CCCCNC(=O)CCOCCOCCOCCOCCOCCOCCOCCOCCOCCOCCOCCOCCN)NC2=O", "note": "[compound 471]", "Nav1.4/Nav1.7": 6, "Nav1.5/Nav1.7": 110}
